Counter-ions that a name gives are not always drawn. Like-named read-outs stand apart in the source and are kept apart here.
Columns and labels:
[1] = test system: hamster flank organ hair growth; experiment: Inhibition of hair growth: hamster flank organ hair mass after thirteen topical applications; format: in vivo, male intact Golden Syrian hamsters; conditions: 13 applications; for inhibition at 5 % strength / inhibition at 10 % strength / inhibition at 20 % strength / inhibition at 30 % strength: Mesocricetus auratus, pH 7-8, read-out: % Inhibition (± SEM)
Procedure: A vehicle or carrier was prepared having the following composition:
A group of male intact Golden Syrian hamsters was provided. These animals were considered acceptable models for human beard hair growth in that they display oval shaped flank organs, one on each side, each about 8 mm. in major diameter, which grow thick black and coarse hair similar to human beard hair. These organs produce hair in response to androgens in the hamster. The flank organs of each hamster were depilated by applying a thioglycolate based chemical depilatory (Surgex), and to one organ of each animal was applied 10-25 μl. of vehicle alone once a day, while to the other organ of each animal was applied an equal amount of vehicle containing the analog. After thirteen applications (one application per day for five days a week), the flank organs were shaved and the amount of recovered hair (hair mass) from each was weighed. Percent-reduction of hair growth was calculated by subtracting the hair mass (mg) value of the test compound treated side from the hair mass value of the vehicle treated side; the delta value obtained was then divided by the hair mass value of the vehicle treated side, and the resultant number was multiplied by 100.

[2] = test system: hamster flank organ; conditions: topical; cited from earlier work
[3] = test system: sebum excretion; conditions: topical, cited from earlier work
[4] = test system: hair growth; conditions: intact males; Table 3, Group VI vs. Group X; cited from earlier work
[5] = test system: animal sebaceous glands; conditions: female vs male; cited from earlier work
[6] = 5% by weight, 10-25 μl once a day, pH 7-8
[7] = 10% by weight, 10-25 μl once a day, pH 7-8
[8] = 20% by weight, 10-25 μl once a day, pH 7-8
[9] = 30% by weight, 10-25 μl once a day, pH 7-8
[10] = 5% by weight, 10-25 μl once a day, vs vehicle treated side
[11] = 10% by weight, 10-25 μl once a day, vs vehicle treated side
[12] = 20% by weight, 10-25 μl once a day, vs vehicle treated side
[13] = 30% by weight, 10-25 μl once a day, vs vehicle treated side

Compound | Hamster Flank Organ Hair Mass, Treated (± SEM) [1, 6] | Hamster Flank Organ Hair Mass, Treated (± SEM) [1, 7] | Hamster Flank Organ Hair Mass, Treated (± SEM) [1, 8] | Hamster Flank Organ Hair Mass, Treated (± SEM) [1, 9] | inhibition at 5 % strength [1, 10] [%] | inhibition at 10 % strength [1, 11] [%] | inhibition at 20 % strength [1, 12] [%] | inhibition at 30 % strength [1, 13] [%] | reduction in hair growth of the hamster flank organ [2] | reduction in the size of the flank organ [2] | Hamster Flank Organ Hair Mass, Treated (± SEM) ([1]; 10% comparison composition, pH 4.0) | % Inhibition (± SEM) ([1]; 10% comparison composition, vs vehicle treated side, pH 4.0) [%] | reducing sebum excretion rates ([3]; females) | reducing sebum excretion rates ([3]; males) | effect on inhibition of hair growth [4] | inhibition of testosterone metabolism and lipogenesis in sebaceous glands [5]
CC(C)(CO)C(O)C(=O)NCCCO (racemic) [DL-PTYA, D, or DL, Pantothenyl alcohol] | 2.670 ± .23 mg | 1.490 ± .30 mg | 1.450 ± .21 mg | .708 ± .13 mg | -8.28 ± 7.51 | 40.3 ± 7.35 | 51.1 ± 7.49 | 70.8 ± 5.95 |  |  |  |  |  |  |  | 
CCC[C@]1(O)CC[C@H]2[C@@H]3CCC4=CC(=O)CC[C@]4(C)[C@H]3CC[C@@]21C [17β-hydroxy-17α-propylandrost-4-en-3-one] |  |  |  |  |  |  |  |  | substantial reduction in hair growth | reduction in the size of the flank organ |  |  |  |  |  | 
CC(C)(CO)[C@@H](O)C(=O)NCCCO [D-PTYA, D, or DL, Pantothenyl alcohol] | 1.069 ± .15 mg | 1.095 ± .32 mg | .899 ± .30 mg | 1.069 ± .26 mg | 55.9 ± 4.32 | 48.3 ± 11 | 31.4 ± 13.8 | 34.8 ± 8.49 |  |  |  |  |  |  |  | 
NCCC[C@](N)(C(=O)O)C(F)F [DFMO, α-difluoromethyl ornithine, reference compound] |  |  |  |  |  |  |  |  |  |  | .631 ± .12 mg | 66.10 ± 7.05 |  |  |  | 
CC(C)(CO)[C@@H](O)C(=O)NCCC(=O)O [PTA, DPantothenic acid hemicalcium salt] | .738 ± .13 mg | .424 ± .11 mg | .270 ± .12 mg | .160 ± .06 mg | 67.3 ± 5.81 | 71.3 ± 8.96 | 85.8 ± 5.75 | 92.7 ± 2.76 |  |  |  |  |  |  |  | 
CC(C)(CO)[C@H](O)C(=O)NCCC(=O)[O-].[Na+] [PTAss, D-Pantothenic acid monosodium salt] | .644 ± .15 mg | .364 ± .10 mg | .500 ± .10 mg | .396 ± .95 mg | 72.6 ± 5.18 | 80.1 ± 4.38 | 74.2 ± 4.83 | 79.8 ± 4.75 |  |  |  |  |  |  |  | 
CC(=O)[C@H]1CC[C@H]2[C@@H]3CCC4=CC(=O)CC[C@]4(C)[C@H]3CC[C@]12C [progesterone] |  |  |  |  |  |  |  |  |  |  |  |  | effective in reducing sebum excretion rates in females | without effect in males | doubtful | effective in the female but not in the male
